From patent US20240409585A1, “MACROCYCLIC IMMUNOMODULATORS” (priority 2021, published 2024)
Bridge positions count the residues as written; N and C are the ends. Square brackets hold non-standard residues; d marks the D form. Peptide text beside a SMILES is read from it. * marks the point of attachment. ξ: configuration not given here. Tyr(3-NO2) = N[C@@H](Cc1ccc(O)c([N+](=O)[O-])c1)C(=O)O; Phe(4-COOH) = N[C@@H](Cc1ccc(C(=O)O)cc1)C(=O)O; Tyr(Ph) = N[C@@H](Cc1ccc(Oc2ccccc2)cc1)C(=O)O; Bip = N[C@@H](Cc1ccc(-c2ccccc2)cc1)C(=O)O; Phe(3-CN) = N#Cc1cccc(C[C@H](N)C(=O)O)c1; Phe(3-OMe) = COc1cccc(C[C@H](N)C(=O)O)c1; Phe(3-Me) = Cc1cccc(C[C@H](N)C(=O)O)c1; d1Nal = N[C@H](Cc1cccc2ccccc12)C(=O)O; Val(3-OH) = CC(C)(O)[C@H](N)C(=O)O; 3Pal = N[C@@H](Cc1cccnc1)C(=O)O; 4Pal = N[C@@H](Cc1ccncc1)C(=O)O; Cha = N[C@@H](CC1CCCCC1)C(=O)O; Cit = NC(=O)NCCC[C@H](N)C(=O)O; AllylGly = C=CC[C@H](N)C(=O)O; Thr(3ξ) = CC(O)[C@H](N)C(=O)O; Carboxymethyl = O=C(O)C*; NMeA = CN[C@@H](C)C(=O)O; Orn = NCCC[C@H](N)C(=O)O; Dab = NCC[C@H](N)C(=O)O; Dap = NC[C@H](N)C(=O)O; ξC = NC(CS)C(=O)O

What follows are molecules tested against T1, PE-labeled human PD-L1-Ig binding to Jurkat cell line over-expressing human PD-1 (Jurkat-PD-1) (Homo sapiens, UniProt Q15116) (assay: Jurkat-PD-1 Cell Binding High-Content Screening Assay (CBA): Method 1). Settings: Jurkat-hPD-1 cells, PE-labeled PD-L1-Ig 20 nM final; read-out: Jurkat HPDL1 PD1 IC50 (uM) (Method 1).
T1 construct: expressed in transfected cells; host or cells: Jurkat
T1 sequence (Q15116 25-288): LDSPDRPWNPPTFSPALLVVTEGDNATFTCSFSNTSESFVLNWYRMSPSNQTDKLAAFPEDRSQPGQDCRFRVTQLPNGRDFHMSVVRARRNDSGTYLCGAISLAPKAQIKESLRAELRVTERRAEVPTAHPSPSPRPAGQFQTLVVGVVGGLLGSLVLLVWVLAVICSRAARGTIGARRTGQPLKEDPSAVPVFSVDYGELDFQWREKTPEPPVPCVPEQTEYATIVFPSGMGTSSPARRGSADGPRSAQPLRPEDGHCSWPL

SMILES	IC50
CC(C)C[C@@H]1NC(=O)[C@H](CCN)NC(=O)[C@@H](CC(C)C)NC(=O)[C@H](C)N(C)C(=O)[C@H](Cc2cnc[nH]2)NC(=O)[C@H](Cc2ccc(-c3ccccc3)cc2)NC(=O)[C@H](C(C)C)NC(=O)[C@H](Cc2c[nH]c3ccccc23)NC(=O)[C@H](CC(=O)O)NC(=O)[C@H](Cc2cccc(C#N)c2)NC(=O)[C@H](CN)NC(=O)CSC[C@@H](C(=O)N[C@@H](C)C(N)=O)NC(=O)[C@H]([C@@H](C)O)NC(=O)[C@H](C(C)C)NC1=O [Compound 1432] ({CH2CO}-[Dap][Phe(3-CN)]DWV[Bip]H[NMeA][dL][Dab]LVTCA-NH2; thioether N-14)	0.05 µM
C=CC[C@@H]1NC(=O)[C@H](CC(C)C)NC(=O)[C@H](CC(N)=O)NC(=O)[C@@H](CC(C)C)NC(=O)[C@H](C)N(C)C(=O)[C@H](CC=C)NC(=O)[C@H](Cc2ccc(-c3ccccc3)cc2)NC(=O)[C@H](CC(C)C)NC(=O)[C@H](Cc2cccc(C)c2)NC(=O)[C@H](CC(=O)O)NC(=O)[C@H](Cc2ccncc2)NC(=O)[C@H](Cc2ccc(OCC(=O)O)cc2)NC(=O)CSCC(C(=O)NCC(N)=O)NC(=O)[C@H](CO)NC1=O (stereo partly drawn) [Compound 1881] ({CH2CO}-Y(Carboxymethyl)[4Pal]D[Phe(3-Me)]L[Bip][AllylGly][NMeA][dL]NL[AllylGly]S[ξC]G-NH2; thioether N-14)	0.1 µM
COc1cccc(C[C@@H]2NC(=O)[C@H](Cc3cccnc3)NC(=O)CSCC(C(=O)N[C@@H](CN)C(=O)O)NC(=O)[C@H](CO)NC(=O)[C@H](C(C)C)NC(=O)[C@H](CC(C)C)NC(=O)[C@H](CC(N)=O)NC(=O)[C@@H](CC(C)C)NC(=O)[C@H](C)N(C)C(=O)[C@H](C(C)C)NC(=O)[C@H](Cc3ccc(-c4ccccc4)cc3)NC(=O)[C@H](C(C)C)NC(=O)[C@H](Cc3c[nH]c4ccccc34)NC(=O)[C@H](CC(=O)O)NC2=O)c1 (stereo partly drawn) [Compound 2211] ({CH2CO}-[3Pal][Phe(3-OMe)]DWV[Bip]V[NMeA][dL]NLVS[ξC][Dap]-OH; thioether N-14)	0.08 µM
CC(C)C[C@@H]1NC(=O)[C@H](CCCNC(=N)N)NC(=O)[C@@H](Cc2ccccc2)NC(=O)[C@H](C)N(C)C(=O)[C@H](CCCNC(=N)N)NC(=O)[C@H](Cc2ccc(-c3ccccc3)cc2)NC(=O)[C@H](C(C)C)NC(=O)[C@H](Cc2c[nH]c3ccccc23)NC(=O)[C@H](CC(=O)O)NC(=O)[C@H](Cc2ccc(O)cc2)NC(=O)[C@H](Cc2cccnc2)NC(=O)CSC[C@@H](C(=O)N[C@@H](C)C(N)=O)NC(=O)[C@H]([C@@H](C)O)NC(=O)[C@H](C(C)C)NC1=O [Compound 1161] ({CH2CO}-[3Pal]YDWV[Bip]R[NMeA][dF]RLVTCA-NH2; thioether N-14)	0.11 µM
CC(C)C[C@@H]1NC(=O)[C@H](CCCN)NC(=O)[C@@H](Cc2cccc3ccccc23)NC(=O)[C@H](C)N(C)C(=O)[C@H](CCCNC(=N)N)NC(=O)[C@H](Cc2ccc(-c3ccccc3)cc2)NC(=O)[C@H](C(C)C)NC(=O)[C@H](Cc2c[nH]c3ccccc23)NC(=O)[C@H](CC(=O)O)NC(=O)[C@H](Cc2ccc(O)cc2)NC(=O)[C@H](CC(N)=O)NC(=O)CSC[C@@H](C(=O)N[C@@H](C)C(N)=O)NC(=O)[C@H]([C@@H](C)O)NC(=O)[C@H](C(C)C)NC1=O [Compound 1182] ({CH2CO}-NYDWV[Bip]R[NMeA][d1Nal][Orn]LVTCA-NH2; thioether N-14)	0.3 µM
CC(C)C[C@H]1NC(=O)[C@H](C)N(C)C(=O)[C@H](CCC(=O)O)NC(=O)[C@H](Cc2ccc(-c3ccccc3)cc2)NC(=O)[C@H](C(C)C)NC(=O)[C@H](Cc2c[nH]c3ccccc23)NC(=O)[C@H](CC(=O)O)NC(=O)[C@H](Cc2ccc(O)cc2)NC(=O)[C@H](C(C)O)NC(=O)CSC[C@@H](C(=O)NCC(N)=O)NC(=O)[C@H](C(C)O)NC(=O)[C@H](C(C)C)NC(=O)[C@H](CC2CCCCC2)NC(=O)[C@H](CCN)NC1=O (stereo partly drawn) [Compound 2095] ({CH2CO}-[Thr(3ξ)]YDWV[Bip]E[NMeA][dL][Dab][Cha]V[Thr(3ξ)]CG-NH2; thioether N-14)	0.04 µM
CC(C)C[C@@H]1NC(=O)[C@H](CCN)NC(=O)[C@@H](CC(C)C)NC(=O)[C@H](C)N(C)C(=O)[C@H](CCC(=O)O)NC(=O)[C@H](Cc2ccc(-c3ccccc3)cc2)NC(=O)[C@H](C(C)C)NC(=O)[C@H](Cc2c[nH]c3ccccc23)NC(=O)[C@H](CC(=O)O)NC(=O)[C@H](Cc2ccc(OCC(=O)O)cc2)NC(=O)[C@H](Cc2ccncc2)NC(=O)CSC[C@@H](C(=O)N[C@@H](C)C(N)=O)NC(=O)[C@H](CO)NC(=O)[C@H](C(C)C)NC1=O [Compound 1575] ({CH2CO}-[4Pal]Y(Carboxymethyl)DWV[Bip]E[NMeA][dL][Dab]LVSCA-NH2; thioether N-14)	0.05 µM
CC(C)C[C@@H]1NC(=O)[C@H](CCN)NC(=O)[C@@H](CC(C)C)NC(=O)[C@H](C)N(C)C(=O)[C@H](CCCNC(=N)N)NC(=O)[C@H](Cc2ccc(-c3ccccc3)cc2)NC(=O)[C@H](C(C)C)NC(=O)[C@H](Cc2c[nH]c3ccccc23)NC(=O)[C@H](CC(=O)O)NC(=O)[C@H](Cc2ccc(O)cc2)NC(=O)[C@H](CC(N)=O)NC(=O)CSC[C@@H](C(=O)N[C@@H](CO)C(N)=O)NC(=O)[C@H]([C@@H](C)O)NC(=O)[C@H](C(C)C)NC1=O [Compound 1179] ({CH2CO}-NYDWV[Bip]R[NMeA][dL][Dab]LVTCS-NH2; thioether N-14)	0.07 µM
CC(C)C[C@@H]1NC(=O)[C@H](Cc2c[nH]c3ccccc23)NC(=O)[C@H](CC(=O)O)NC(=O)[C@H](Cc2ccc(Oc3ccccc3)cc2)NC(=O)[C@H](Cc2ccccc2)NC(=O)CSC[C@@H](C(=O)N[C@@H](C)C(N)=O)NC(=O)[C@H](CO)NC(=O)[C@H](C(C)C)NC(=O)[C@H](CC(C)C)NC(=O)[C@H](CC(N)=O)NC(=O)[C@@H](C)NC(=O)[C@H](C)N(C)C(=O)[C@H](C(C)C)NC(=O)[C@H](Cc2ccc(-c3ccccc3)cc2)NC1=O [Compound 1813] ({CH2CO}-F[Tyr(Ph)]DWL[Bip]V[NMeA][dA]NLVSCA-NH2; thioether N-14)	0.3 µM
CC(C)C[C@@H]1NC(=O)[C@H](Cc2c[nH]c3ccccc23)NC(=O)[C@H](CC(=O)O)NC(=O)[C@H](Cc2ccc(C(=O)O)cc2)NC(=O)[C@H](Cc2ccc(OCC(=O)O)cc2)NC(=O)CSC[C@@H](C(=O)N[C@@H](C)C(N)=O)NC(=O)[C@H](CO)NC(=O)[C@H](C(C)C)NC(=O)[C@H](CC(C)C)NC(=O)[C@H](CC(N)=O)NC(=O)[C@@H](C)NC(=O)[C@H](C)N(C)C(=O)[C@H](C(C)C)NC(=O)[C@H](Cc2ccc(-c3ccccc3)cc2)NC1=O [Compound 1560] ({CH2CO}-Y(Carboxymethyl)[Phe(4-COOH)]DWL[Bip]V[NMeA][dA]NLVSCA-NH2; thioether N-14)	0.02 µM

Further molecules by falling IC50, results first:

IC50	SMILES
0.02 µM	Cc1cccc(C[C@@H]2NC(=O)[C@H](CC(=O)O)NC(=O)[C@H](Cc3ccc(OCC(=O)O)cc3)NC(=O)[C@H](CN)NC(=O)CSC[C@@H](C(=O)N[C@@H](C)C(N)=O)NC(=O)[C@H]([C@@H](C)O)NC(=O)[C@H](C(C)C)NC(=O)[C@H](CC(C)C)NC(=O)[C@H](CCN)NC(=O)[C@@H](CC(C)C)NC(=O)[C@H](C)N(C)C(=O)[C@H](CCCNC(N)=O)NC(=O)[C@H](Cc3ccc(-c4ccccc4)cc3)NC(=O)[C@H](C(C)C)NC2=O)c1 [Compound 1437] ({CH2CO}-[Dap]Y(Carboxymethyl)D[Phe(3-Me)]V[Bip][Cit][NMeA][dL][Dab]LVTCA-NH2; thioether N-14)
0.02 µM	CC(C)C[C@@H]1NC(=O)[C@H](Cc2c[nH]c3ccccc23)NC(=O)[C@H](CC(=O)O)NC(=O)[C@H](Cc2ccc(O)cc2)NC(=O)[C@H](Cc2ccccc2)NC(=O)CSC[C@@H](C(=O)NCC(N)=O)NC(=O)[C@H](CO)NC(=O)[C@H](C(C)C)NC(=O)[C@H](CC(C)C)NC(=O)[C@H](CCN)NC(=O)[C@@H](C)NC(=O)[C@H](C)N(C)C(=O)[C@H](C(C)C)NC(=O)[C@H](Cc2ccc(-c3ccccc3)cc2)NC1=O [Compound 1479] ({CH2CO}-FYDWL[Bip]V[NMeA][dA][Dab]LVSCG-NH2; thioether N-14)
0.01 µM	CC[C@H](C)[C@@H]1NC(=O)[C@H](Cc2ccc(-c3ccccc3)cc2)NC(=O)[C@H](C(C)C)NC(=O)[C@H](Cc2c[nH]c3ccccc23)NC(=O)[C@H](CC(=O)O)NC(=O)[C@H](Cc2ccc(OCC(=O)O)cc2)NC(=O)[C@H](CC(N)=O)NC(=O)CSC[C@@H](C(=O)N[C@@H](C)C(N)=O)NC(=O)[C@H]([C@@H](C)O)NC(=O)[C@H](C(C)C)NC(=O)[C@H](CC(C)C)NC(=O)[C@H](CCN)NC(=O)[C@@H](CC(C)C)NC(=O)[C@H](C)N(C)C1=O [Compound 1396] ({CH2CO}-NY(Carboxymethyl)DWV[Bip]I[NMeA][dL][Dab]LVTCA-NH2; thioether N-14)
0.01 µM	Cc1cccc(C[C@@H]2NC(=O)[C@H](CC(=O)O)NC(=O)[C@H](Cc3ccc(OCC(=O)O)cc3)NC(=O)[C@H](Cc3ccncc3)NC(=O)CSC[C@@H](C(=O)N[C@@H](CCN)C(N)=O)NC(=O)[C@H](CO)NC(=O)[C@H](C(C)(C)O)NC(=O)[C@H](CC3CCCCC3)NC(=O)[C@H](CCN)NC(=O)[C@@H](CC(C)C)NC(=O)[C@H](C)N(C)C(=O)[C@H](Cc3ccc(OCC(=O)O)cc3)NC(=O)[C@H](Cc3ccc(-c4ccccc4)cc3)NC(=O)[C@H](Cc3ccc(OCC(=O)O)cc3)NC2=O)c1 [Compound 2135] ({CH2CO}-[4Pal]Y(Carboxymethyl)D[Phe(3-Me)]Y(Carboxymethyl)[Bip]Y(Carboxymethyl)[NMeA][dL][Dab][Cha][Val(3-OH)]SC[Dab]-NH2; thioether N-14)
0.01 µM	CC(C)C[C@@H]1NC(=O)[C@H](CCN)NC(=O)[C@@H](CC(C)C)NC(=O)[C@H](C)N(C)C(=O)[C@H](CCCNC(N)=O)NC(=O)[C@H](Cc2ccc(-c3ccccc3)cc2)NC(=O)[C@H](C(C)C)NC(=O)[C@H](Cc2c[nH]c3ccccc23)NC(=O)[C@H](CC(=O)O)NC(=O)[C@H](Cc2ccc(O)c([N+](=O)[O-])c2)NC(=O)[C@H](Cc2ccncc2)NC(=O)CSC[C@@H](C(=O)N[C@@H](C)C(N)=O)NC(=O)[C@H]([C@@H](C)O)NC(=O)[C@H](C(C)C)NC1=O [Compound 1336] ({CH2CO}-[4Pal][Tyr(3-NO2)]DWV[Bip][Cit][NMeA][dL][Dab]LVTCA-NH2; thioether N-14)
